For seven compounds, IC50, CLint scaled and Ki results are on record in patent publication US20120214802A1, “PYRROLIDINE COMPOUNDS WHICH INHIBIT BETA-SECRETASE ACTIVITY AND METHODS OF USE THEREOF” (priority 2009, published 2012).

Data set [1] addresses T1, memapsin 2 (Cricetulus griseus, UniProt G3IAK4).
T1 construct: endogenous in cells; host or cells: Chinese hamster ovary cells over-expressing human APP695 (London + Swedish)
Put plainly: Cellular Aβ IC50 determination (Aβ40 sandwich ELISA). It is filed as cell-based, Chinese hamster. The note with it: CHO cells over-expressing human APP695 with London and Swedish mutations, 24 h, read-out: M2 IC50. The method, then: The potency of compounds against memapsin 2 activity was determined in a cellular assay of Aβ production. […] Chinese hamster ovary cells that over-express human APP695 with the London and Swedish mutations were seeded in multi-well plates at 10% confluency. Compounds are dissolved in DMSO to concentrations near 1 mM, and diluted into culture media to a final concentration near 4 μM (final 0.4% DMSO). Compounds were diluted serially and applied to cells in multi-well plates 48 h after seeding. Incubation was continued in 5% CO2 at 37° C. for 24 h. Aliquots were removed and assayed for […] using a sandwich ELISA (BioSource International). Amount of Aβ40 over the range of concentration of compounds, relative to control incubations, were fit to a 4-parameter IC50 model.
Background: In an ELISA, binding on a coated surface is turned into a signal by an enzyme label.

A short description of data set [2]: Hepatic intrinsic clearance in liver microsomes. It is filed as in vitro ADME. The note with it: human, pH 7.4, human liver microsomes. The protocol: To 500 μl of 200 mM Na^+K^+phosphate buffer (pH 7.4), 100 μl of 1 mM EDTA solution was added followed by 100 μl of 2 mg protein/ml human liver microsomes. A 10 μl aliquot of test compound (20 mM stock in 50% acetonitrile) was diluted further with 40 μl of H2O (total assay volume […]. Assay mixture is incubated for 5 minutes at 37° C. The assay was initiated by addition of 250 μl of 4 mM NADPH solution. Incubation was continued at 37° C. Separate reaction mixtures were prepared for 0, 5, 10, 20, and 30 min durations. Individual reactions were halted by addition of 150 μl of 100% acetonitrile. Internal standard (10 μl of 100 ng/ml diazepam solution) was added. Concentration of the test compound in each separate reaction was measured using LC/MS/MS and a standard curve for the test compound according to standard procedures.
The hepatic intrinsic clearance in liver microsome was determined by the following procedure described by Davies and Morris (Davies, B. and Morris, T. (19930) Physiological parameters in laboratory animals and humans. Pharm Res. 10:1093-1095) detailing the relationship of in vitro clearance to physiological parameters in animals and human subjects.
The amount of compound remaining at each time point was expressed relative to the amount present in the initial (0 min) incubation. The relationship of relative amount vs. time was used to determine the half life of the compound in the microsome assay. The concentration independent rate constant, k1, was determined from rectangular hyperbolic fit:
where T is time (in minutes), from the relationship of relative amount vs. time. Alternatively, k1 was determined from a transform of the equation, where
Conversion to in vivo clearance was obtained from the relation (Davies and Morris, 1993):
where v=velocity of metabolism, [S] is the concentration of the compound, and volumes are expressed in mL.
Background: Liver microsomes are a subcellular fraction often used to study metabolism.

Data set [3] addresses memapsin 2 (Homo sapiens, UniProt P56817). The data set can be described thus: Inhibition of memapsin 2 beta-secretase activity (fluorogenic substrate FS-2). It is filed as biochemical. The note with it: pH 4, 37° C., read-out: M2 Ki. The gist of the method:
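Memapsin 2 pre-incubated with compound for 20 min at pH 4, 37° C. Reaction started with fluorogenic substrate FS-2, […], derived from Swedish-variant APP beta-secretase site; inhibition measured from fluorescence.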

The target of the next data set is T2, CYP3A4 (Homo sapiens, UniProt P08684).
T2 construct: host or cells: human liver microsomes
Put plainly: CYP3A4 inhibition (midazolam metabolism in human liver microsomes). The following applies: substrate midazolam. It is filed as in vitro ADME. The method, then: To evaluate the drug-drug interaction potential for compounds, the potency to inhibit the major metabolic cytochrome CYP450 isoform 3A4 was assessed. The inhibition constant Ki was determined for inhibition of the metabolism of midazolam, a CYP3A4 substrate.
CYP3A4 Ki assays were performed following a recently published protocol with slight modifications (Di, L., Kerns, E. H., Li, S. Q., and Carter, G. T. (2007) Comparison of cytochrome P450 inhibition assays for drug discovery using human liver microsomes with LC-MS, rhCYP450 isozymes with fluorescence, and double cocktail with LC-MS. International Journal of Pharmaceutics 335: 1-11). The P450 inhibition assay was performed in 96-well plates at 37.2° C. in a shaking incubator. The compounds were diluted from 5 mM stocks in 100% DMSO and incubated at seven final concentrations from 0.078 to 10 μM (0.1% DMSO in each final incubation), with human liver microsomes (HLM) at a final protein concentration of 0.1 mg/mL protein and a substrate concentration ranging from 1.25 to 10 μM.
The assay was standardized for both phosphate buffer (100 mM, pH 7.4) and the NADPH regenerating system (MgCl2, 3.3 mM; G6P, 3.3 mM; G6PD, 1 U/ml; NADP+, 1.3 mM). Eight replicate control samples (0.1% DMSO, no compound) were prepared. Assays (200 μL) were set up by mixing HLM+substrate stock, 10 μL of test article in 2% DMSO, and the substrate before initiating the reaction with the addition of the regenerating system mixture. Reactions were quenched following incubation for 20, 30 and 40 minutes as described following.
After incubation for the specified time in a humidified shaking incubator, 20 μL of the reaction mixture was removed and the reactions were terminated by adding 200 μL of cold acetonitrile. Samples were centrifuged at 1000×g for 15 minutes in Solvinert filter plate. The receptor plate was dried via speed vacuum at 40° C. The sample was reconstituted with a reconstitution buffer composed of 10% acetonitrile, 10% DMSO, 80% H2O with an internal standard added at a concentration of 100 ng/ml. MS-Analysis was completed using LC-MS/MS. Formation of 1′-hydroxymidazolam was measured by monitoring a specific SRM (342>203) transition for the CYP3A4 metabolite.
Data were expressed as the relative quantity of midazolam metabolite relative to control incubations. Initial velocities were obtained by multiplying the relative quantity by the initial substrate concentration and dividing by the incubation duration. Data were transformed to inverse of inivital velocity and expressed vs. inhibitor concentration [I] for determination of Ki by the Dixon method (Dixon, M. (1953) Biochemical Journal 55: 170-171) using where intercept [I]=−Ki was determined at multiple substrate concentrations.

Setting [4] is: in vitro clearance, read-out: HLM CL.

Several values for one entry are separate records, joined by “and”; a condition that tells them apart may be missing. Equal values may be shown once. Read-outs that look alike come from different tables or passages of the source. Where only a bound is given, the exact number is not on record here.

The term IC50 denotes the concentration that inhibits the measured activity by half.

T1 sequence (G3IAK4 22-501): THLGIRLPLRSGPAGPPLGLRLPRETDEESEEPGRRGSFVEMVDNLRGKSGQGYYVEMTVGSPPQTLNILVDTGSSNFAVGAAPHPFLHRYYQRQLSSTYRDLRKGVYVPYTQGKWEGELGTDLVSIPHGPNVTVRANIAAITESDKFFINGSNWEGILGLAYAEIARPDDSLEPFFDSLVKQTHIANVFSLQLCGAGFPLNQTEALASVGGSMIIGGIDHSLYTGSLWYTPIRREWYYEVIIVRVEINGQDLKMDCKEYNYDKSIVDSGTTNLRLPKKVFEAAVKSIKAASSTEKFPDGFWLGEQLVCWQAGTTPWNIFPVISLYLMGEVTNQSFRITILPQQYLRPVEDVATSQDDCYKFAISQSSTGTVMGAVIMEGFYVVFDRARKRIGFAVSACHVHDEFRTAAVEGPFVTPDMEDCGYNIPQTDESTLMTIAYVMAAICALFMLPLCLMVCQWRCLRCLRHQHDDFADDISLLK
T2 sequence (P08684 whole entry): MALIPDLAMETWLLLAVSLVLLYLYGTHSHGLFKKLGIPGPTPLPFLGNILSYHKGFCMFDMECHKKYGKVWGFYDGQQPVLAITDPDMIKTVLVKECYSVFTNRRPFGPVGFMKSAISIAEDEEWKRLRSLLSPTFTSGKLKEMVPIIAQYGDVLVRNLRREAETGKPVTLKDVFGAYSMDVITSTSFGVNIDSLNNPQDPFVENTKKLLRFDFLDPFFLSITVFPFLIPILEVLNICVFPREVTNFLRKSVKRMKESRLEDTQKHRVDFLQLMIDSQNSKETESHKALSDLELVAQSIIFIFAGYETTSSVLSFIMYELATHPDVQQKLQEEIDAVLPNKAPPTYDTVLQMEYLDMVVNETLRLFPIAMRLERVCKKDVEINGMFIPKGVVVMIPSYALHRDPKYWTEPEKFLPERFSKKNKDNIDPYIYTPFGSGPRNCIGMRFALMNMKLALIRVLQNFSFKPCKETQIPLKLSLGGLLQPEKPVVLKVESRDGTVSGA
Sequence of memapsin 2 (Homo sapiens, UniProt P56817) (P56817 46-501): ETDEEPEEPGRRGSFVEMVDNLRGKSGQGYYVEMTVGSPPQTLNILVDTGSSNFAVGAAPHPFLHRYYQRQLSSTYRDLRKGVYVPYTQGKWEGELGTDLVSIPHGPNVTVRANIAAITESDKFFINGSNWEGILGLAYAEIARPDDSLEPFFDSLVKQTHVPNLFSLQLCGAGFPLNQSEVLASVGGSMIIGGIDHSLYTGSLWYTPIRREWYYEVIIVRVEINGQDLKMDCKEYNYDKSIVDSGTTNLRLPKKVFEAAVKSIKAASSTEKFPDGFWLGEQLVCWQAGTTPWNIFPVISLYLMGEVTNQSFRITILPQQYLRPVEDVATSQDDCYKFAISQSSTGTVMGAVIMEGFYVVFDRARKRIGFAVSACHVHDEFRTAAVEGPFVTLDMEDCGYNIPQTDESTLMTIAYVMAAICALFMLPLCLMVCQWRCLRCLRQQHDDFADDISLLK

For `C=C(C)c1cccc(CNC[C@@H](O)[C@H](Cc2ccccc2)NC(=O)c2cccc(C(=O)N3CCC[C@@H]3c3nc(C)co3)c2)c1` [2-6, N-((2S,3R)-3-hydroxy-1-phenyl-4-(3-(prop-1-en-2-yl)benzylamino)butan-2-yl)-3-((R)-2-(4-methyloxazol-2-yl)pyrrolidine-1-carbonyl)benzamide, reference compound], the IC50 on memapsin 2 [1] is less than 500 nM. In addition, the CLint scaled at 200 μM in data set [2] (setting [4]) is greater than 700 mL/min/kg. On memapsin 2 [3], the Ki is less than 250 nM.
For `Cc1coc([C@H]2CCCN2C(=O)c2cccc(C(=O)N[C@@H](Cc3ccccc3)[C@H](O)CNCc3cncc(C(C)(C)C)c3)c2)n1` [2-4, N-((2S,3R)-4-((5-tert-butylpyridin-3-yl)methylamino)-3-hydroxy-1-phenylbutan-2-yl)-3-((R)-2-(4-methyloxazol-2-yl)pyrrolidine-1-carbonyl)benzamide, reference compound], on memapsin 2 [1], the IC50 is less than 500 nM. For the same compound, the Ki on CYP3A4 (read-out: CYP 3A4Ki) was less than 1000 nM; at memapsin 2 [3], less than 250 nM. Moreover, the CLint scaled at 200 μM in data set [2] (setting [4]) was greater than 700 mL/min/kg.
For `Cc1coc([C@H]2CCCN2C(=O)c2cccc(C(=O)N[C@@H](Cc3ccccc3)[C@H](O)[C@H]3C[C@@H](OCc4ccccc4)CN3)c2)n1` [1-18, N-((1R,2S)-1-((2R,4R)-4-(benzyloxy)pyrrolidin-2-yl)-1-hydroxy-3-phenylpropan-2-yl)-3-((R)-2-(4-methyloxazol-2-yl)pyrrolidine-1-carbonyl)benzamide], at memapsin 2 [1], the IC50 was less than 500 nM. The Ki is 11500 nM at CYP3A4; greater than 10000 nM at CYP3A4 (read-out: CYP 3A4Ki); ~50.4 nM and < 250 nM and 50.4 nM at memapsin 2 [3]. Further, the figures for the CLint scaled at 200 μM in data set [2] (setting [4]) and in data set [2] (read-out: hepatic intrinsic clearance in liver microsomes (HLMCL)) were less than 400 mL/min/kg and roughly 337 mL/min/kg, respectively.
Regarding `Cc1csc(CN(C)C(=O)c2cc(C(=O)N[C@@H](Cc3ccccc3)[C@H](O)[C@H]3CCCN3)cc(-c3cnco3)c2)n1` [1-12, N1-((1R,2S)-1-hydroxy-3-phenyl-1-((R)-pyrrolidin-2-yl)propan-2-yl)-N3-methyl-N3-((4-methylthiazol-2-yl)methyl)-5-(oxazol-5-yl)isophthalamide], the IC50 at memapsin 2 [1] is greater than 1000 nM. Also, the CLint scaled at 200 μM in data set [2] (setting [4]) is less than 400 mL/min/kg. Besides, the Ki on memapsin 2 [3] was less than 250 nM.
For the compound `Cc1csc([C@H]2CCCN2C(=O)c2cncc(C(=O)N[C@@H](Cc3ccccc3)[C@H](O)CNCc3cc(Cl)nc(N(C)C)c3)c2)n1` [2-1, N-((2S,3R)-4-((2-chloro-6-(dimethylamino)pyridin-4-yl)methylamino)-3-hydroxy-1-phenylbutan-2-yl)-5-((R)-2-(4-methylthiazol-2-yl)pyrrolidine-1-carbonyl)nicotinamide, reference compound], the IC50 on memapsin 2 [1] is less than 500 nM. The CLint scaled at 200 μM in data set [2] (setting [4]) was greater than 700 mL/min/kg. Besides, the Ki at memapsin 2 [3] is less than 250 nM.
In the case of `COc1cc(C(=O)N[C@@H](Cc2ccccc2)[C@H](O)[C@H]2CCCN2)cc(C(=O)N2CCC[C@@H]2c2nc(C)cs2)c1` [1-34, N-((1R,2S)-1-hydroxy-3-phenyl-1-((R)-pyrrolidin-2-yl)propan-2-yl)-3-methoxy-5-((R)-2-(4-methylthiazol-2-yl)pyrrolidine-1-carbonyl)benzamide], the IC50 on memapsin 2 [1] is greater than 1000 nM. The results for the Ki at CYP3A4 (read-out: CYP 3A4Ki) and on memapsin 2 [3] were 5000 to 10000 nM and less than 250 nM, respectively.
As for `Cc1csc([C@H]2CCCN2C(=O)c2cc(C(=O)N[C@@H](Cc3ccccc3)[C@H](O)[C@H]3CCCN3)cc(N3CCCC3=O)c2)n1` [1-39, N-((1R,2S)-1-hydroxy-3-phenyl-1-((R)-pyrrolidin-2-yl)propan-2-yl)-3-((R)-2-(4-methylthiazol-2-yl)pyrrolidine-1-carbonyl)-5-(2-oxopyrrolidin-1-yl)benzamide], the IC50 on memapsin 2 [1] is less than 500 nM. In addition, the CLint scaled at 200 μM in data set [2] (setting [4]) was less than 400 mL/min/kg. In addition, the Ki on memapsin 2 [3] was less than 250 nM.
